Reference: ChEMBL document CHEMBL1130710, “Design and synthesis of a novel class of nucleotide analogs with anti-HCMV activity” (Bioorg Med Chem Lett, 1998)
Values after ≈ are worked out from the molar mass of the structure shown. Values joined by “and” are separate entries in the source; they are usually repeats but may differ in a detail not shown here. Equal values may be shown once.

How the values were obtained:
F2002 cell line [1] = test: (§1) Anti-HCMV activity against F2002 cell line; format: functional; settings: Homo sapiens, read-out: CD50 (the source's name)
F2002 cell line [2] = test: as §1; format: functional, cell-based, Homo sapiens
F2002 cell line [3] = test: Compound was tested for Anti-HCMV activity against F2002 cell line(exp 1); format: functional, cell-based; settings: Homo sapiens
F2002 cell line [4] = test: Compound was tested for Anti-HCMV activity against F2002 cell line(exp 2); format: functional, cell-based; settings: Homo sapiens
[5] = Homo sapiens, F2002, read-out: IC50

Structure (SMILES)	IC50 (F2002 cell line [2]; [5])	IC50 (F2002 cell line [2]; f2002)	IC50 (F2002 cell line [3])	IC50 (F2002 cell line [4])	CC50 (F2002 cell line [1])
Cc1cn(CC2COC(P(=O)(O)O)O2)c(=O)[nH]c1=O (stereo unspecified)	> 100 µg/mL	–	–	–	> 100 µg/mL
Nc1ncnc2c1ncn2CC1COC(P(=O)(O)O)O1 (stereo unspecified)	> 100 µg/mL	–	–	–	> 100 µg/mL
N.O=c1ccn(CC2COC(P(=O)(O)O)O2)c(=O)[nH]1 (stereo unspecified)	> 100 µg/mL	–	–	–	> 100 µg/mL
Nc1ccn(CC2COC(P(=O)(O)O)O2)c(=O)n1 (stereo unspecified)	> 100 µg/mL	–	–	–	> 100 µg/mL
Nc1nc(O)c2ncn(CC3COC(P(=O)(O)O)O3)c2n1 (stereo in doubt; 7a)	–	20 µg/mL (≈ 63.1 µM)	–	–	–
Nc1nc2c(ncn2COC(CO)CO)c(=O)[nH]1 [GANCICLOVIR]	–	–	0.1 µg/mL (≈ 0.392 µM)	0.2 µg/mL (≈ 0.784 µM)	> 100 µg/mL

More lines, main results first:

IC50 (F2002 cell line [2]; [5])	IC50 (F2002 cell line [2]; f2002)	IC50 (F2002 cell line [3])	IC50 (F2002 cell line [4])	Structure (SMILES)	CC50 (F2002 cell line [1])
> 30 µg/mL	–	–	–	N.Nc1nc(O)c2ncn(C[C@H]3CO[C@H](P(=O)(O)O)O3)c2n1	> 30 µg/mL
–	45 µg/mL and > 100 µg/mL	–	–	N.Nc1nc(O)c2ncn(C[C@@H]3CO[C@H](P(=O)(O)O)O3)c2n1	–
> 100 µg/mL	–	–	–	N.Nc1nc(O)c2ncn(C[C@@H]3CO[C@@H](P(=O)(O)O)O3)c2n1	> 100 µg/mL
> 100 µg/mL	–	–	–	N.Nc1nc(O)c2ncn(C[C@H]3CO[C@@H](P(=O)(O)O)O3)c2n1	> 100 µg/mL
–	> 100 µg/mL	–	–	Nc1nc(O)c2ncn(CC3COC(P(=O)(O)O)O3)c2n1 (stereo in doubt; 7b)	> 100 µg/mL
